Experimental data as given in patent US20240408194A1, “DNA ORIGAMI SUBUNIT VACCINE FOR PREVENTION OF SARS-CoV-2 VARIANT INFECTION” (priority 2021, published 2024).
“Also recorded” adds a separate entry of the source.

System: spike and variants
Type: binding, SARS-COV-2

## LCB1
  binding affinity for spike and variants: up to picomolar; also recorded: high affinity
